Assay [1] deals with T1, Substance-P receptor (Homo sapiens, UniProt P25103). Put plainly: Tested for affinity against NK-1(Neurokinin-1) receptor expressed as pKi.
Assay [2] addresses T2, Cholecystokinin receptor type A (Homo sapiens, UniProt P32238).
T2 sequence (P32238 whole entry): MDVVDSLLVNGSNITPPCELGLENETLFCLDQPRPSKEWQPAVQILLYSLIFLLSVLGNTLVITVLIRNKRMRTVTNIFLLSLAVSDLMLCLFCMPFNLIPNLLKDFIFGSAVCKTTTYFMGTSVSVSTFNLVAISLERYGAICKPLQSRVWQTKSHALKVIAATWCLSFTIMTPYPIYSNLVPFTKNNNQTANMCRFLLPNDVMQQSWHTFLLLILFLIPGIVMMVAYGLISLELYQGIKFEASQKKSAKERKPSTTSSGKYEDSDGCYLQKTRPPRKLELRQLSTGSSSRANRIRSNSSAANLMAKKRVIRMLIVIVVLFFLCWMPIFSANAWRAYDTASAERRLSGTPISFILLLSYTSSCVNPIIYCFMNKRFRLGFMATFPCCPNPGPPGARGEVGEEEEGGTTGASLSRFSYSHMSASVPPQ
Nature of the assay: Concentration required for 50% inhibition of cholecystokinin A(CCK A).

Assay [3] deals with T1, Substance-P receptor. Nature of the assay: Concentration required for 50% inhibition of neurokinin-1 receptor.

T1 sequence (P25103 whole entry): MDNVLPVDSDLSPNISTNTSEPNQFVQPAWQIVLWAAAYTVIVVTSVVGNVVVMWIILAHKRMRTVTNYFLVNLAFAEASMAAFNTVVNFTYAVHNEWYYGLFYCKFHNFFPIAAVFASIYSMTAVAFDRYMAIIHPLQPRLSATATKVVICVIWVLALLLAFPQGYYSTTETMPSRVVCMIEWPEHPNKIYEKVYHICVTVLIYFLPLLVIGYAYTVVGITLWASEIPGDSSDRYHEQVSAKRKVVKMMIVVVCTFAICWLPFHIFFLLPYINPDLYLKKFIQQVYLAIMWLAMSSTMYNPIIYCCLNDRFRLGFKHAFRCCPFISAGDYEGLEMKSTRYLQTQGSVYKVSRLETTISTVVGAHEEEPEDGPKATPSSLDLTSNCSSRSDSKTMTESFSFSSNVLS

`COC(=O)C1c2ccccc2NC(=O)CN1C(=O)N(C)Cc1cc(C(F)(F)F)cc(C(F)(F)F)c1` (stereo not given): in assay [1], the affinity, expressed as Ki, was 0.316 µM. That is a sub-micromolar value. Still for that read-out and setting: the same measure for `CN(Cc1cc(C(F)(F)F)cc(C(F)(F)F)c1)C(=O)N1CC(=O)Nc2ccccc2C1c1ccccc1` (stereo not given): 0.01 µM. For the molecule `CCCCCN(CCCCC)C(=O)C(Cc1c[nH]c2ccccc12)NC(=O)c1ccc(Cl)c(Cl)c1` (stereo not given), the IC50 (in general, the concentration that gives 50% inhibition) in assay [2] amounted to 0.19 µM. With `O=C1CN(C(=O)NCc2cc(C(F)(F)F)cc(C(F)(F)F)c2)C(c2ccccc2)c2ccccc2N1` (stereo not given), affinity in assay [1] was put at a Ki of 0.631 µM. The same measure, in the same setting: the figure for `CN(Cc1cc(C(F)(F)F)cc(C(F)(F)F)c1)C(=O)N1CC(=O)Nc2ccccc2C1CN1CCOCC1` (stereo not given) is 0.794 µM. For the molecule `CC(=O)NC(Cc1c[nH]c2ccccc12)C(=O)N(C)Cc1ccccc1` (stereo not given), the half-maximal inhibitory concentration (IC50) in assay [3] stood at 0.75 µM. With `CC1c2ccccc2NC(=O)CN1C(=O)N(C)Cc1cc(C(F)(F)F)cc(C(F)(F)F)c1` (stereo not given), in assay [1], affinity was put at a Ki of 0.0316 µM.

`CN(Cc1ccccc1)C(=O)N1CC(=O)Nc2ccccc2C1c1ccccc1` (stereo not given): in assay [1], the affinity corresponds to a Ki of 1 µM. With `CC1c2ccccc2NCCN1C(=O)N(C)Cc1cc(C(F)(F)F)cc(C(F)(F)F)c1` (stereo not given), the affinity in assay [1] corresponds to a Ki of 0.0398 µM. Against the preceding molecule, the Ki is about 25-fold lower. In the case of `CC1c2ccccc2N(C)C(=O)CN1C(=O)N(C)Cc1cc(C(F)(F)F)cc(C(F)(F)F)c1` (stereo not given), the inhibition constant Ki (as a rule, the dissociation constant of the complex between target and ligand, obtained from inhibition or displacement) in assay [1] is 1 µM.

The values are drawn from ChEMBL document CHEMBL1153648, “1,4-Benzodiazepin-2-one derived neurokinin-1 receptor antagonists” (Bioorg Med Chem Lett, 1997).
